Experiments:
Type in all cases: cell-based
KRAS^G12C [1] = target: T1, KRAS^G12C (Homo sapiens, UniProt P01116, G12C); experiment: KRAS^G12C degradation in heterozygous H358 cells; parameters: endogenous in cells; host or cells: NCI-H358; details: heterozygous H358 cells (FIG. 4A)
KRAS^G12C [2] = target: T1, KRAS^G12C; experiment: KRAS^G12C engagement and degradation in homozygous, MRTX849 resistant SW1573 cells; parameters: MRTX849-VHL bifunctional compounds engage and degrade endogenous KRAS^G12C in NCI-H2030 cells; endogenous in cells; host or cells: NCI-H2030, NCI-H358, MIA PaCa-2, SW1573, NCI-H23
KRAS^G12C [3] = target: T1, KRAS^G12C; experiment: KRAS^G12C engagement and degradation by immunoblot in NCI-H2030 cells; parameters: MRTX849-VHL bifunctional compounds engage and degrade endogenous KRAS^G12C in NCI-H2030 cells; endogenous in cells; host or cells: NCI-H2030, NCI-H358, MIA PaCa-2, SW1573, NCI-H23; details: for KRAS, two-way ANOVA significance vs DMSO: FIG. 9A
Experimental: NCI-H2030 (CRL-5914), MIA PaCa-2 (CRL-1420), NCI-H23 (CRL-5800), NCI-H358 (CRL-5807), and HCT-116 (CCL-247) cells were obtained from ATCC, expanded immediately, and frozen down. Vials were thawed and used within 20 passages. SW1573 cells were a gift from Arvinas and were handled in the same manner. NCI-H2030, NCI-H23, and NCI-H358 were cultured in RPMI (ATCC30-2001) supplemented with 10% FBS (Biological Industries; cat. no. S1480) and 1% Penicillin-Streptomycin (ThermoFisher; cat. no. 15140122). HCT-116 cells were maintained in high glucose DMEM (ThermoFisher; cat. no. 11965084) supplemented as above. MIA PaCa-2 cells were cultured in high glucose DMEM supplemented with 10% FBS, 2.5% horse serum (ThermoFisher; cat. no. 26050-088; lot 2109875), and 1% Penicillin-Streptomycin. SW1573 cells were maintained in DMEM/F12 Nutrient Mix with GlutaMAX supplement (ThermoFisher; cat. no. 10565018) with 10% FBS and 1% Penicillin-Streptomycin added. DPBS (ThermoFisher; cat. no. 14190250) was used to wash cells and 0.25% Trypsin-EDTA (ThermoFisher; cat. no. […]) was used to detach cells for passaging. […] The VHL ligand was generously provided by Arvinas.
Between 2.5×10^5 and 6.0×10^5 cells were seeded into 6-well plates (Corning; cat. no. 353046). The next day, media was removed and cells were treated with 2.5 μM LC-2 for 1, 2, 4, 8, 12, or 24 hours. […] For 24-hour time course experiments, cells were treated at the indicated times and concurrently lysed in RIPA buffer supplemented as described previously. For longer time course experiments and time courses in which cells were treated with LC-2 or LC-2 Epimer, cells were concurrently treated with either compound, then lysed by scraping in RIPA buffer at the indicated time points.
Between 2.5×10^5 and 5.0×10^5 cells were seeded into 6-well plates. The next day cells were pretreated with DMSO, 500 μM or 1 mM VHL ligand, 1 μM epoxomicin, 1 μM […], or 100 nM […] bafilomycin A1 for 1 hour. Media was then removed and cells were treated with DMSO, 2.5 μM LC-2 plus DMSO, 2.5 μM LC-2 Epimer plus DMSO, or co-treated with 2.5 μM LC-2 and the corresponding competitor/inhibitor. H2030 cells were treated for 4 hours and H23 cells were treated for 24 hours, after which cells were lysed by scraping in RIPA buffer supplemented as described previously.
Cell lysates were clarified at 21000×g for 15 mins at 4° C. Protein levels were quantified using a 50:1 mixture of bicinchoninic acid solution (Millipore Sigma; cat. no. B9643) and 4% (w/v) copper(II) sulfate solution (Millipore Sigma; cat. no. C2284) incubated at 37° C. for 30 mins. Absorbance values at 560 nm were read on an EnVision 2101 Multilabel Reader (PerkinElmer). Proteins were separated using 26 well Criterion TGX precast 4-15% (cat. no. 5671085) or 8-16% (cat. no. 5671105) gradient midi gels. After separation, proteins were transferred to nitrocellulose or PVDF membranes at 76 V for 2 hours at 4° C. Blots were then blocked in 5% milk in tris-buffered saline with Tween-20 (TBST; 20 mM Tris, 150 mM NaCl, 0.02% Tween-20). After blocking, blots were incubated in primary antibody overnight (12-18 hours) at 4° C. or for 2 hours at room temperature with mild agitation at the manufacturer's indicated dilution in either 5% milk or 5% BSA in TBST. Blots were then washed thrice with TBST for 5 mins at room temperature. After washing, blots were incubated with 1:5,000-1:10,000 of donkey anti-rabbit (GE Life Sciences; NA934) or sheep anti-mouse (GE Life Sciences; NA931) secondary antibody diluted in 5% milk for 1 hour at room temperature with mild agitation. Blots were again washed thrice with TBST for 5 mins. Chemiluminescent signal was generated using Amersham ECL Prime Western Blotting Detection Reagant (GE Life Sciences; cat. no. RPN2232) or SuperSignal West Femto Maximum Sensitivity Substrate (ThermoFisher; cat. no. 34095). Images were obtained using a Bio-Rad ChemiDoc Imager.

[4] = SW1573 cells, 72 hour time course (FIG. 8)
[5] = SW1573 cells, time course (FIG. 6B)
[6] = NCI-H2030, homozygous KRAS^G12C

| SMILES | induction of KRAS^G12C degradation (KRAS^G12C [1]) | change of KRAS^G12C level over 72 hours (KRAS^G12C [2]; [4]) | earliest time KRAS^G12C binding seen (KRAS^G12C [3]; NCI-H2030, 2.5 μM) [h] | KRAS engagement versus degradation (KRAS^G12C [3]; NCI-H2030, 2.5 μM, 4 hours) | KRAS^G12C degradation maintained for (KRAS^G12C [2]; [4]) [h] | time to onset of KRAS^G12C degradation (KRAS^G12C [2]; [4]) [h] | maximal KRAS^G12C degradation maintained up to (KRAS^G12C [2]; [5]) [h] | time to maximal KRAS^G12C degradation (KRAS^G12C [2]; [5]) [h] | induction of KRAS^G12C degradation (KRAS^G12C [2]; homozygous, MRTX849 resistant SW1573 cells (FIG. 4C)) | Dmax (KRAS^G12C [3]; NCI-H2030) [%] | KRAS, two-way ANOVA significance vs DMSO (KRAS^G12C [3]; NCI-H2030, 0.1 μM) | KRAS, two-way ANOVA significance vs DMSO (KRAS^G12C [3]; NCI-H2030, 0.25 μM) | time to maximum degradation (KRAS^G12C [3]; NCI-H2030, 2.5 μM) [h] | KRAS degradation (KRAS^G12C [3]; NCI-H2030, 2.5 μM, 4 hours) [%] | persistence of maximum degradation (KRAS^G12C [3]; NCI-H2030, 2.5 μM, 24 hour time course) | DC50 (KRAS^G12C [3]; [6]) [nM] | Dmax (KRAS^G12C [3]; [6]) [%] | lowest concentration inducing maximal degradation of endogenous KRAS^G12C (KRAS^G12C [3]; NCI-H2030 cells) [µM] |
| --- | --- | --- | --- | --- | --- | --- | --- | --- | --- | --- | --- | --- | --- | --- | --- | --- | --- | --- |
| C=C(F)C(=O)N1CCN(c2nc(OC[C@@H]3CCCN3CCCOCCC(=O)N[C@H](C(=O)N3C[C@@H](O)C[C@H]3C(=O)NCc3ccc(-c4scnc4C)cc3)C(C)(C)C)nc3c2CCN(c2cccc4cccc(Cl)c24)C3)C[C@@H]1CC#N [LC-2 Epimer, (2S,4S)-1-((S)-2-(3-(3-((S)-2-(((7-(8-chloronaphthalen-1-yl)-4-((S)-3-(cyanomethyl)-4-(2-fluoroacryloyl)piperazin-1-yl)-5,6,7,8-tetrahydropyrido[3,4-d]pyrimidin-2-yl)oxy)methyl)pyrrolidin-1-yl)propoxy)propanamido)-3,3-dimethylbutanoyl)-4-hydroxy-N-(4-(4-methylthiazol-5-yl)benzyl)pyrrolidine-2-carboxamide] | not | No change is observed | 1 | only KRAS engagement was observed |  |  |  |  |  |  |  |  |  |  |  |  |  |  |
| C=C(F)C(=O)N1CCN(c2nc(OC[C@@H]3CCCN3CCCOCCC(=O)N[C@H](C(=O)N3C[C@H](O)C[C@H]3C(=O)NCc3ccc(-c4scnc4C)cc3)C(C)(C)C)nc3c2CCN(c2cccc4cccc(Cl)c24)C3)C[C@@H]1CC#N [LC-2, (2S,4R)-1-((S)-2-(3-(3-((S)-2-(((7-(8-chloronaphthalen-1-yl)-4-((S)-3-(cyanomethyl)-4-(2-fluoroacryloyl)piperazin-1-yl)-5,6,7,8-tetrahydropyrido[3,4-d]pyrimidin-2-yl)oxy)methyl)pyrrolidin-1-yl)propoxy)propanamido)-3,3-dimethylbutanoyl)-4-hydroxy-N-(4-(4-methylthiazol-5-yl)benzyl)pyrrolidine-2-carboxamide] | induces KRAS^G12C degradation |  | 1 |  | 72 | ≤ 6 | 24 | 12 | induces KRAS^G12C degradation | > 75 | N.S. | N.S. | ≤ 8 | ~65 | persisted up to 24 hours | 590 ± 200 | >75 | 2.5 |

Reference: patent publication US20220370416A1, “COMPOUNDS AND METHODS FOR TARGETED DEGRADATION OF KRAS” (Arvinas Operations, Inc., priority 2020, published 2022)
